Entries after “also recorded” stand apart in the source; their conditions may differ.
Legend:
[1] = system: Jurkat T cells; assay: Cell cycle analysis by flow cytometry, Jurkat T cells; format: cell-based, human
Experimental: FIG. 6. Cell cycle analysis. Asynchronous Jurkat, LNCaP, WI-38, and VA-13 cells are treated with 10 μM EGCG and harvested at the time points indicated. Cells are prepared and analyzed by flow cytometry as described in the The Materials and Methods section of Example 1. Growth arrest is determined by the increase in the percentage of G1 population.
FIG. 12. […] Jurkat T cells are treated with either 50 μg/ml of tannic acid or buffer (−) for up to 48 h. The harvested cells are fixed, resuspended in 1 ml of PBS containing 50 μg/ml of propidium iodide (PI), 100 U/ml of RNase A, and 1 mg/ml of glucose, and analyzed by flow cytometry. Percentages of cells containing G1 S, G2 and M DNA content are indicated. Percentages of the apoptotic cell population containing sub-G1 DNA content is also indicated. Note: tannic acid treatment results in ˜23% increase in G1 and ˜14% increase in apoptotic cell populations.
Cell cycle analysis—Cell cycle analysis based on DNA content is performed as follows. Cells are harvested, counted and washed twice with PBS. Cells (5×10^6 ) are then suspended in 0.5 ml PBS, pipetted and fixed in 5 ml of 70% ethanol for at least 2 h at −20° C. Cells are centrifuged, resuspended in 1 ml of propidium iodide staining solution (50 μg propidium iodide, 100 units RNase A and 1 mg glucose per ml PBS) and incubated at room temperature for 30 min. The cells are then analyzed with FACScan (Becton Dickinson Immunocytometry, CA.), ModFit LT and WinMDI V.2.8 cell cycle analysis software (Verity Software, Topsham, Me.). The cell cycle distribution is shown as the percentage of cells containing G1, S, G2, and M DNA judged by propidium iodide staining.

[2] = biological target: T1, proteasomal chymotrypsin-like activity in Jurkat T cell extract (Homo sapiens, UniProt P28074); assay: Proteasome chymotrypsin-like activity in Jurkat T cell free extract; format: biochemical
T1 construct: endogenous in cells; host or cells: Jurkat T cells (whole cell extract or intact cells)
Experimental: FIG. 9. Inhibition of the proteasome activity by tannic acid using a cell free extract. A). The whole cell extract (6.0 μg) from Jurkat T cells is incubated for 90 min at 37° C. with 20 μM of a fluorogenic peptide substrate, Suc-Leu-Leu-Val-Tyr-AMC for the chymotrypsin-like activity, Z-Leu-Leu-Glu-AMC for peptidyl-glutamyl peptide-hydrolyzing (PGPH) activity, and Z-Gly-Gly-Arg-AMC for the trypsin-like activity, in 100 μl of the assay buffer with (filled bars) or without (empty bars) 1 μg/ml of tannic acid. The hydrolyzed AMCs are quantified as described in FIG. 2. B). […] Experiment is performed as described in FIG. 9A.
Inhibition of the proteasome activity with cell free extracts by tea polyphenols—The whole cell extract (3.5 μg) from Jurkat T cells is incubated for 90 min at 37° C. with 20 μM of a fluorogenic peptide substrate, Suc-Leu-Leu-Val-Tyr-AMC (for the chymotrypsin-like activity), Z-Leu-Leu-Glu-AMC [peptidyl-glutamyl peptide-hydrolyzing (PGPH) activity; Calbiochem], and Z-Gly-Gly-Arg-AMC (for the trypsin-like activity; Bachem), in 100 μl of the assay buffer with or without 10 μM EGCG or EGC. The hydrolyzed AMCs are quantified as described above.

[3] = biological target: T2, proteasome chymotrypsin-like activity in living Jurkat cells (Homo sapiens, UniProt P28074); assay: Proteasome chymotrypsin-like activity in living Jurkat T cells; format: cell-based
T2 construct: endogenous in cells; host or cells: Jurkat T cells (whole cell extract or intact cells)
Experimental: FIG. 10. Inhibition of the chymotrypsin-like activity by tannic acid in intact Jurkat T cells. Intact Jurkat T cells (1×10^5 cells/ml/well) are cultured in 24-well plates. These cells are first incubated for 12 h with various concentrations of tannic acid as indicated, followed by an additional 2 h-incubation with a fluorogenic peptide substrate, Suc-Leu-Leu-Val-Tyr-AMC for the chymotrypsin-like activity. Then, cell medium (200 μl per sample) is collected and used for measurement of free AMCs.
Inhibition of the proteasome activity in living cells by tea polyphenols—To measure inhibition of the chymotrypsin-like activity in living tumor cells, Jurkat T (1×10^5 cells/ml/well), MCF7 or PC-3 cells (1×10^4 cells/ml/well) are cultured in 24-well plates. These cells are first incubated for 12 h with various concentrations of EGCG, EGC, β-lactone or LLnL, followed by an additional 2 h-incubation with fluorogenic peptide substrates, Suc-Leu-Leu-Val-Tyr-AMC for the chymotrypsin-like activity and Z-Gly-Gly-Arg-AMC for the trypsin-like activity. After that, cell medium (200 μl per sample) is collected and used for measurement of free AMCs.

[4] = biological target: chymotrypsin-like activity of purified 20S proteasome; format: biochemical; settings: read-out: IC50 towards the chymotrypsin-like activity of purified 20S proteasome
Chain of chymotrypsin-like activity of purified 20S proteasome (Q9P992 whole entry): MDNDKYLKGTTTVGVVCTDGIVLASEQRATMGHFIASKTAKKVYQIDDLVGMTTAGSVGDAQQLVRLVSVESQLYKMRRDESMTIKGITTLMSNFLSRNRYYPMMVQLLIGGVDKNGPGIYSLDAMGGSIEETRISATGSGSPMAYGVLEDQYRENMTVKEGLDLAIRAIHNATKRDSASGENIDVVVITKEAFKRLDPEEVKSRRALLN
Experimental: FIG. 8. […] A). […] Initially, 0.5 μg of purified 20S proteasome is incubated with 20 μM of a fluorogenic peptide substrate, Suc-Leu-Leu-Val-Tyr-AMC, for 30 min at 37° C. in 100 μl of assay buffer (20 mM Tris-HCl, pH 8.0) with various concentrations of tannic acid. After incubation, the reaction mixture is diluted to 200 μl with the assay buffer, followed by measurement of the hydrolyzed 7-amido-4-methyl-coumarin (AMC) groups using a fluorometer with an excitation filter of 380 nm and an emission filter of 460 nm. B). […] Tannic acid (0.3 μg/ml) and Glucose (180 μg/ml) are used in the proteasome activity assay as described above. C). […] Purified calpain I (3 μg) protein is incubated with 40 μM of a fluorogenic peptide substrate, Suc-Leu-Tyr-AMC, for 30 min at 37° C. in 100 μl of assay buffer (50 mM Tris-HCl, pH 7.5, containing 50 mM NaCl, 1 mM EDTA, 1 mM EGTA, 5 mM β-Mercaptoethanol, 5 mM CaCl2, and 0.1% CHAPS) in the absence (control) or presence of 5 μg/ml of tannic acid or 0.18 μg/ml of calpeptin (calpain inhibitor).
Inhibition of the proteasome activity in vitro by tea polyphenols—To measure the 20S proteasome chymotrypsin-like activity, 0.5 μg of a purified 20S proteasome (Calbiochem) is incubated with 20 μM of a fluorogenic peptide substrate, Suc-Leu-Leu-Val-Tyr-AMC (Calbiochem), for 30 min at 37° C. in 100 μl of assay buffer (20 mM Tris-HCl, pH 8.0), with or without tea polyphenols (purity >95%; Sigma) or tea extract. After incubation, the reaction mixture is diluted to 200 μl with the assay buffer, followed by measurement of the hydrolyzed 7-amido-4-methyl-coumarin (AMC) groups using a VersaFluor™ Fluorometer with an excitation filter of 380 nm and an emission filter of 460 nm (Bio-Rad).

[5] = tannic acid 50 μg/ml, up to 48 h

Compound	increase in G1 population ([1]; 10 μM, 24 h) [%]	inhibition of proteasomal chymotrypsin-like activity in Jurkat T cell extract (in words) [2]	inhibition of proteasomal chymotrypsin-like activity ([2]; 10 μM, Jurkat T cell extract) [%]	inhibition of chymotrypsin-like activity in living/intact Jurkat cells (in words) [3]	inhibition of chymotrypsin-like activity ([3]; 10 μM, living Jurkat cells) [%]	IC50 ([3]; 12 h preincubation) [µM]	IC50 [4] [µM]	G1 arrest and apoptosis (in words) ([1]; tannic acid)	increase in G1 cell population [1, 5] [%]	increase in apoptotic cell population (sub-G1) [1, 5] [%]
O=C(O[C@@H]1Cc2c(O)cc(O)cc2O[C@@H]1c1cc(O)c(O)c(O)c1)c1cc(O)c(O)c(O)c1 [EGCG, (−)-epigallocatechin-3-gallate]	10	most potent proteasome inhibitor among all the tested polyphenols	~70	inhibitable	24	18				
Oc1cc(O)c2c(c1)O[C@H](c1cc(O)c(O)c(O)c1)[C@H](O)C2 [EGC, (−)-epigallocatechin]		little effect		much less effect			1200			
O=C(OC[C@H]1O[C@@H](OC(=O)c2cc(O)c(O)c(OC(=O)c3cc(O)c(O)c(O)c3)c2)[C@H](OC(=O)c2cc(O)c(O)c(OC(=O)c3cc(O)c(O)c(O)c3)c2)[C@@H](OC(=O)c2cc(O)c(O)c(OC(=O)c3cc(O)c(O)c(O)c3)c2)[C@@H]1OC(=O)c1cc(O)c(O)c(OC(=O)c2cc(O)c(O)c(O)c2)c1)c1cc(O)c(O)c(OC(=O)c2cc(O)c(O)c(O)c2)c1 [tannic acid]		Dose-dependent inhibition; also recorded: inhibited by tannic acid in a dose-dependent manner		inhibition				induces G1 arrest and apoptosis	~23	~14
